From the NIST ThermoML archive (doi:10.1016/j.jct.2015.10.001)

Test: mn = molality of the nth substance listed, in mol/kg
Settings: 100 kPa, Liquid; for viscosity: Capillary tube (Ostwald / Ubbelohde) method; for electrical conductivity: Direct current cell with electrodes; for mass density: Vibrating tube method

CCCCn1cc[n+](C)c1.O=C([O-])c1ccccc1O [1-butyl-3-methylimidazolium salicylate] + O
Settings	electrical conductivity [S/m]	mass density [kg/m3]	viscosity [mPa·s]
293.15 K, m1 = 0.001	0.007	–	–
293.15 K, m1 = 0.0037	0.0231	–	–
293.15 K, m1 = 0.00579	–	998.44	–
293.15 K, m1 = 0.0058	–	–	1.031
293.15 K, m1 = 0.0062	0.0356	–	–
293.15 K, m1 = 0.007	–	998.49	–
293.15 K, m1 = 0.0071	–	–	1.035
293.15 K, m1 = 0.0072	0.0399	–	–
293.15 K, m1 = 0.008	0.0439	–	–
293.15 K, m1 = 0.00801	–	998.53	–
293.15 K, m1 = 0.01	0.0517	–	–
293.15 K, m1 = 0.01056	–	998.64	–
293.15 K, m1 = 0.0117	–	–	1.046
293.15 K, m1 = 0.01278	–	998.73	–
293.15 K, m1 = 0.0144	0.0674	–	–
293.15 K, m1 = 0.0158	–	998.86	–
293.15 K, m1 = 0.01707	–	998.92	–
293.15 K, m1 = 0.0205	–	–	1.065
293.15 K, m1 = 0.02056	–	999.07	–
293.15 K, m1 = 0.0221	0.0901	–	–
293.15 K, m1 = 0.02523	–	999.27	–
293.15 K, m1 = 0.0353	–	–	1.091
293.15 K, m1 = 0.0384	–	–	1.096
293.15 K, m1 = 0.0552	–	–	1.123
293.15 K, m1 = 0.0765	–	–	1.155
298.15 K, m1 = 0.001	0.0079	–	–
298.15 K, m1 = 0.0037	0.0262	–	–
298.15 K, m1 = 0.00579	–	997.28	–
298.15 K, m1 = 0.0058	–	–	0.925
298.15 K, m1 = 0.0062	0.0404	–	–
298.15 K, m1 = 0.007	–	997.33	–
298.15 K, m1 = 0.0071	–	–	0.93
298.15 K, m1 = 0.0072	0.0452	–	–
298.15 K, m1 = 0.008	0.0498	–	–
298.15 K, m1 = 0.00801	–	997.37	–
298.15 K, m1 = 0.01	0.0588	–	–
298.15 K, m1 = 0.01056	–	997.48	–
298.15 K, m1 = 0.0117	–	–	0.943
298.15 K, m1 = 0.01278	–	997.57	–
298.15 K, m1 = 0.0144	0.0771	–	–
298.15 K, m1 = 0.0158	–	997.7	–
298.15 K, m1 = 0.01707	–	997.75	–
298.15 K, m1 = 0.0205	–	–	0.964
298.15 K, m1 = 0.02056	–	997.9	–
298.15 K, m1 = 0.0221	0.103	–	–
298.15 K, m1 = 0.02523	–	998.11	–
298.15 K, m1 = 0.0353	–	–	0.993
298.15 K, m1 = 0.0384	–	–	0.998
298.15 K, m1 = 0.0552	–	–	1.026
298.15 K, m1 = 0.0765	–	–	1.058
303.15 K, m1 = 0.001	0.0089	–	–
303.15 K, m1 = 0.0037	0.0297	–	–
303.15 K, m1 = 0.0058	–	–	0.838
303.15 K, m1 = 0.0062	0.0454	–	–
303.15 K, m1 = 0.0071	–	–	0.842
303.15 K, m1 = 0.0072	0.0507	–	–
303.15 K, m1 = 0.0117	–	–	0.857
303.15 K, m1 = 0.0205	–	–	0.879
303.15 K, m1 = 0.0353	–	–	0.911
303.15 K, m1 = 0.0384	–	–	0.917
303.15 K, m1 = 0.0552	–	–	0.945
303.15 K, m1 = 0.0765	–	–	0.979
